System: SKOV-3 cells
Assay: Cytotoxicity assay (MTT) against SKOV-3 cells
Assay type: cell-based, Human
Details: SKOV-3, 72 hours
Method: Human ovarian cancer cells, SKOV-3 and SKOV-3/Luc cells, were cultured in GIBCO™ DMEM supplemented with 10% FBS, 100 units/mL penicillin, and 100 μg/mL streptomycin at 37° C. in […] culture flasks under a humidified atmosphere of 5% CO2. Cells were sub-cultured when the cell confluence reached ˜80%.
The anticancer activities of polymer nanogels against SKOV-3 cells were evaluated by MTT assay. Cells were seeded in 96-well plates at a density of 5,000 cells/well for 24 hours prior to the test at 37° C. with 5% CO2. Then the cells were treated with varying concentrations of PTX/DOX or polymer nanogels in fresh medium and further incubated for 72 hours. In the control group, cells were allowed to grow without any treatment. After that, the medium was replaced with 100 μL fresh medium containing MTT reagent (final concentration 1 mg/mL) and cells were further incubated for 4 hours. The purple MTT crystal was dissolved with 100 μL MTT stop solution and the optical density at 595 nm was recorded on a microplate reader (ELx808™ Absorbance Microplace Reader, Bio-Tech Instrument, Inc.).

## CC(=O)O[C@H]1C(=O)[C@@]2(C)[C@H]([C@H](OC(=O)c3ccccc3)[C@]3(O)C[C@H](OC(=O)[C@H](O)[C@@H](NC(=O)c4ccccc4)c4ccccc4)C(C)=C1C3(C)C)[C@]1(OC(C)=O)CO[C@@H]1C[C@@H]2O [PTX, paclitaxel]
Homo sapiens, SK-OV-3, PTX, PPP and PPPM nanogels
  IC50: 0.0306 µM

## COc1cccc2c1C(=O)c1c(O)c3c(c(O)c1C2=O)C[C@@](O)(C(=O)CO)C[C@@H]3O[C@H]1C[C@H](N)[C@H](O)[C@H](C)O1 [DOX, doxorubicin]
DOX, PPD and PPDA nanogels
  IC50: 0.582 µM
